Measured values from PMC3891821, “Discovery of Bile Salt Hydrolase Inhibitors Using an Efficient High-Throughput Screening System” (PLoS ONE, 2014).
Structures can show the parent of a compound that is named as a salt.

Legend:
Type in all cases: biochemical
[1] = molecular target: T1, rBSH (recombinant bile salt hydrolase) (Ligilactobacillus salivarius, UniProt J7H3P9); experiment: two-step BSH assay, amino acid released from glycocholate
T1 construct: His-tagged full-length BSH, E. coli host, Ni-NTA purified
T1 sequence (J7H3P9 2-324): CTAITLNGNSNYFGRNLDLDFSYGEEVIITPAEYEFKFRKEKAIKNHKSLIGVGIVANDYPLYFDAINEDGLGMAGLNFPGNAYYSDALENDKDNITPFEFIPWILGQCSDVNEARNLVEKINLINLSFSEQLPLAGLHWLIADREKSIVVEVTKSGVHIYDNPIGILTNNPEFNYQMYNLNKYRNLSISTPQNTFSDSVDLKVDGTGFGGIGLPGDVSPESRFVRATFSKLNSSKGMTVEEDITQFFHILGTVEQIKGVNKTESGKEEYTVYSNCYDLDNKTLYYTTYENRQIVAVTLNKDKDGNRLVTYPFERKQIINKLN
Text: two-step BSH assay, amino acid released from glycocholate on rBSH (recombinant bile salt hydrolase)

[2] = molecular target: T1, rBSH (recombinant bile salt hydrolase); experiment: two-step assay, amino acid release; details: 37 C
[3] = molecular target: T1, rBSH (recombinant bile salt hydrolase); experiment: microplate precipitation assay, A600; details: pH 6.0, 37 C, DTT

Row | Structure (SMILES) | inhibition at 5000 µM [1] [%] | also measured
1 | O=C(/C=C/c1ccc(O)c(O)c1)OCCc1ccccc1 [Caffeic Acid Phenethyl Ester] | 99.7 | –
2 | CC(C)c1cc2c(c(O)c1O)[C@@]1(C(=O)O)CCCC(C)(C)[C@@H]1CC2 [Carnosic Acid] | 96.8 | –
3 | CC1=C(C(=O)O)N2C(=O)[C@@H](NC(=O)[C@H](N)C3=CCC=CC3)[C@H]2SC1 [Cephradine] | 61.8 | –
4 | Cc1onc(-c2ccccc2Cl)c1C(=O)N[C@@H]1C(=O)N2[C@@H]1SC(C)(C)[C@@H]2C(=O)O [Cloxacillin] | 61.2 | –
5 | CN(C)[C@@H]1C(O)=C(C(N)=O)C(=O)[C@@]2(O)C(O)=C3C(=O)c4c(O)ccc(Cl)c4[C@@H](O)[C@H]3C[C@@H]12 [Demeclocycline Hydrochloride] | 92 | –
6 | C[C@H]1c2cccc(O)c2C(O)=C2C(=O)[C@]3(O)C(O)=C(C(N)=O)C(=O)[C@@H](N(C)C)[C@@H]3[C@@H](O)[C@@H]21 [Doxycycline Hydrochloride] | 92.9 | –
7 | O=C(O[C@@H]1Cc2c(O)cc(O)cc2O[C@@H]1c1ccc(O)c(O)c1)c1cc(O)c(O)c(O)c1 [Epicatechin monogallate] | 98.6 | –
8 | CC[C@H]1OC(=O)[C@H](C)[C@@H](O[C@H]2C[C@@](C)(OC)[C@@H](O)[C@H](C)O2)[C@H](C)[C@@H](O[C@@H]2O[C@H](C)C[C@H](N(C)C)[C@H]2O)[C@](C)(O)C[C@@H](C)C(=O)[C@H](C)[C@@H](O)[C@]1(C)O [Erythromycin] | 36.5 | –
9 | O=c1c(O)c(-c2ccc(O)c(O)c2)oc2c(O)c(O)cc(O)c12 [Gossypetin] | 97.3 | –
10 | CCC[C@@H]1C[C@@H](C(=O)N[C@@H]([C@H]2O[C@H](SC)[C@H](O)[C@@H](O)[C@H]2O)[C@@H](C)O)N(C)C1 [Lincomycin] | 67.3 | –
11 | CC1=CC(=O)c2ccccc2C1=O [Menadione] | 87.2 | –
12 | C=C1c2cccc(O)c2C(=O)C2=C(O)[C@]3(O)C(=O)C(C(N)=O)=C(O)[C@@H](N(C)C)[C@@H]3[C@@H](O)[C@H]12 [Methacycline Hydrochloride] | 90.2 | –
13 | CN(C)[C@@H]1C(=O)C(C(N)=O)=C(O)[C@@]2(O)C(=O)C3=C(O)c4c(O)cccc4[C@@](C)(O)[C@H]3[C@H](O)[C@@H]12 [Oxytetracycline] | 97.4 | –
14 | O=c1c(O)cccc2cc(O)c(O)c(O)c12 [Purpurogallin] | 83 | –
15 | Cc1cc2nc3c(=O)[nH]c(=O)nc-3n(C[C@H](O)[C@H](O)[C@H](O)CO)c2cc1C [Riboflavin] | – | inhibition at 1000 µM [1]: 99.3%
16 | O=[N+]([O-])c1cc([As](=O)(O)O)ccc1O [Roxarsone] | – | % Inhibition ([1]; 5000 µM, sodium glycocholate, 30 min preincubation, 37 C): 98.4%
17 | Cc1cc(C)nc(NS(=O)(=O)c2ccc(N)cc2)n1 [Sulfamethazine] | 48.7 | –
18 | CC[C@H]1OC(=O)C[C@@H](O)[C@H](C)[C@@H](O[C@@H]2O[C@H](C)[C@@H](O[C@H]3C[C@@](C)(O)[C@@H](O)[C@H](C)O3)[C@H](N(C)C)[C@H]2O)[C@@H](CC=O)C[C@@H](C)C(=O)/C=C/C(C)=C/[C@@H]1CO[C@@H]1O[C@H](C)[C@@H](O)[C@@H](OC)[C@H]1OC [Tylosin] | 23.8 | –
19 | C[C@H](CCC(=O)NCC(=O)O)[C@H]1CC[C@H]2[C@@H]3[C@H](O)C[C@@H]4C[C@H](O)CC[C@]4(C)[C@H]3C[C@H](O)[C@]12C [sodium glycocholate] | – | two-step assay, amino acid release [2]: ascertain the amount of liberated amino acids from sodium glycocholate
20 | C[C@H](CCC(=O)NCCS(=O)(=O)O)[C@H]1CC[C@H]2[C@@H]3CC[C@@H]4C[C@H](O)CC[C@]4(C)[C@H]3C[C@H](O)[C@]12C [taurodeoxycholic acid] | – | microplate precipitation assay, A600 [3]: taurodeoxycholic acid was better than other tested conjugated bile salts
